Measured values as given in patent publication US11970460B1, “4-(4,5-bis(4-bromophenyl)-2-phenyl-1H-imidazol-1-yl)benzoic acid as an antimicrobial compound” (KING FAISAL UNIVERSITY, priority 2023, dated 2024).

Columns and labels:
Pseudomonas aeruginosa = assay: Agar plate disc-diffusion, antibacterial activity (inhibition zone); type: cell-based; conditions: nutrient agar, 37° C., 48 h
Procedure: (§1) The agar plate disc-diffusion method was applied. […] The discs were then placed onto the surface of agar plates (nutrient agar for bacteria and Sabouraud's dextrose agar for fungi) seeded with the test organism. Each plate contained 15 mL of the agar medium, previously seeded with 0.2 mL of the broth culture of each organism pregrown for 18 hours. The plates were incubated at 37° C. for 48 h, and 72 h for fungi. The inhibition zones were measured in mm. Discs impregnated with DMSO were used as a control, and its inhibition zone was subtracted from the tested compound actual inhibition zone.

Staphylococcus aureus = assay: as above; type: cell-based; conditions: nutrient agar, 37° C., 48 h
Procedure: as §1

Escherichia coli = assay: as above; type: cell-based; conditions: nutrient agar, 37° C., 48 h
Procedure: as §1

Bacillus cereus = assay: as above; type: cell-based; conditions: nutrient agar, 37° C., 48 h
Procedure: as §1

Aspergillus flavus = assay: Agar plate disc-diffusion, antifungal activity (inhibition zone); type: cell-based; conditions: Sabouraud's dextrose agar, 37° C., 72 h
Procedure: as §1

[1] = tested on: Chrysosporium keratinophilum; assay: as above; type: cell-based; conditions: Sabouraud's dextrose agar, 37° C., 72 h
Procedure: as §1

[2] = A = concentration of comp. = 10,000 μL
[3] = B = concentration of comp. = 30,000 μL
[4] = C = concentration of comp. = 50,000 μL

- melting point: 284 °C
Structure (SMILES): O=C(O)c1ccc(-n2c(-c3ccccc3)nc(-c3ccc(Br)cc3)c2-c2ccc(Br)cc2)cc1 [V, 4-(4,5-bis(4-bromophenyl)-2-phenyl-1H-imidazol-1-yl)benzoic acid]
- inhibition zone, Pseudomonas aeruginosa, A (Pseudomonas aeruginosa; [2]): 25 mm
- inhibition zone, Pseudomonas aeruginosa, B (Pseudomonas aeruginosa; [3]): 28 mm
- inhibition zone, Pseudomonas aeruginosa, C (Pseudomonas aeruginosa; [4]): 44 mm
- inhibition zone, Staphylococcus aureus, A (Staphylococcus aureus; [2]): 18 mm
- inhibition zone, Staphylococcus aureus, B (Staphylococcus aureus; [3]): 21 mm
- inhibition zone, Staphylococcus aureus, C (Staphylococcus aureus; [4]): 31 mm
- inhibition zone, Escherichia coli, A (Escherichia coli; [2]): 28 mm
- inhibition zone, Escherichia coli, B (Escherichia coli; [3]): 35 mm
- inhibition zone, Escherichia coli, C (Escherichia coli; [4]): 50 mm
- inhibition zone, Bacillus Cereus, A (Bacillus cereus; [2]): 24 mm
- inhibition zone, Bacillus Cereus, B (Bacillus cereus; [3]): 27 mm
- inhibition zone, Bacillus Cereus, C (Bacillus cereus; [4]): 39 mm
- inhibition zone, Aspergillus flavus, A (Aspergillus flavus; [2]): 23 mm
- inhibition zone, Aspergillus flavus, B (Aspergillus flavus; [3]): 27 mm
- inhibition zone, Aspergillus flavus, C (Aspergillus flavus; [4]): 33 mm
- inhibition zone, Chrysosporium keratinophilum, A [1, 2]: 27 mm
- inhibition zone, Chrysosporium keratinophilum, B [1, 3]: 29 mm
- inhibition zone, Chrysosporium keratinophilum, C [1, 4]: 48 mm
